Results from patent US10766855B2, “Hydroxamate triterpenoid derivatives” (VIVACELL BIOTECHNOLOGY ESPANA S.L., priority 2016, dated 2020).

Experiments:
Nrf2 = Nrf2 activation/inhibition in HaCaT-ARE-Luc cells; type: cell-based; conditions: 6 h
Procedure: The HeLa-STAT3-luc cells stably transfected with the plasmid 4×M67 pTATA TK-Luc. Cells (20×10^3 cells/ml) were seeded in 96-well plates, treated with increasing concentrations of the compounds II to XIV, and of comparative compound CDDO-Me, for 15 min and then stimulated with IFN-γ 25 IU/ml. After 6 h the luciferase activity in the cell lysates was measured as indicated above. […] The HaCaT-ARE-Luc cell line contains the Nqo1 Antioxidant Response Element (ARE)-Luc reporter plasmid. ARE is activated by all members of the CNC family of factors (Nrf1, Nrf2, Nrf3 and p45 NF-E2). The cells were cultivated in 96-well plates at the concentration of 25×10^3 cells/well in a CO2 incubator at 37° C. For induction of Nrf2 activation the cells were treated with increasing concentrations of the compounds II to XV, and of comparative compound CDDO-Me, for 6 h. As a positive control the cells were treated with 0.02 mM of the antioxidant Tert-butyl-hydroquinone (TBHQ). Luciferase activity in the cell lysates was measured as indicated above and the EC50 calculated (Table III). The CHO-TGR5-CRE-Luc cells stably transfected with the pTGR5 and CRE-Luc. The CRE-responsive luciferase construct encodes the firefly luciferase reporter gene under the control of a minimal (m)CMV promoter and tandem repeats of the CRE transcriptional response element (TRE) and is useful to monitor cAMP signaling pathways activated by TGR5 agonists. Cells (1×10^4/well) were seeded in 96-well plates, treated with increasing concentrations of the compounds II to XV and CDDO-Me, for 6 h. As a positive control the cells were treated with 10 μM of LCA (lithocholic acid). Luciferase activity in the cell lysates was measured as indicated above and the EC50 calculated (Table III).

TGR5 = TGR5 activation in CHO-TGR5-CRE-Luc cells; type: cell-based; conditions: 6 h
Procedure: The CHO-TGR5-CRE-Luc cells stably transfected with the pTGR5 and CRE-Luc. […] As a positive control the cells were treated with 10 μM of LCA (lithocholic acid). Luciferase activity in the cell lysates was measured as indicated above and the EC50 calculated (Table III).

HIF-1α = HIF-1α stabilization in 293T cells (Western blot); type: cell-based, human; conditions: increasing concentrations, 3 h
Procedure: Stimulation of human Embryonic Kidney 293 cells with increasing concentrations of compound VII or with DFX (150 μM) during 3 h. The steady state levels of the proteins HIF-1α, PHD1, PHD2 and β-actin were determined by Western blots.
Next, Human Embryonic Kidney 293 cells (293T) were stimulated with the increasing concentrations of compound VII or with DFX (150 μM) during 3 h. After that, proteins isolation and western blots were performed as in FIG. 3. The antibody against HIF-1α (610959) was from BD Biosciences (USA), the antibodies anti-PHD1 (ab80361) and anti-PHD2 (ab109088) were from Abcam (Cambrigde, UK), and the antibody anti-β-actin (AC-74) was purchased from Sigma-Aldrich (Saint Louis, Mo., USA).

HIF-2α = HIF-2α stabilization in hIPCs (Western blot); type: cell-based, human; conditions: increasing concentrations, 3 h
Procedure: Stimulation of human Islet-Derived Precursor Cells (hIPCs) with increasing concentrations of compound VII or with DFX (150 μM) during 3 h, and the expression of HIF-2α, PHD3 and β-actin determined by Western blots.
Since PDH2 and PDH3 also regulate the expression of HIF-2α, the effect of compound VII on HIF-2α stabilization in Human Islet-Derived Precursor Cells (hIPCs) obtained from Innoprot SL (Spain) (reference p10472) was investigated. hIPCs were stimulated with the increasing concentrations of compound VII or with DFX (150 μM) during 3 h. After that, proteins isolation and western blots were performed as in FIG. 3. The antibodies against HIF-2α (ab8365) and PHD3 (ab30782) were from Abcam (Cambrigde, UK), and the antibody anti-β-actin (AC-74) was purchased from Sigma-Aldrich (Saint Louis, Mo., USA). (FIG. 5).

Erythropoietin (EPO) = assay: Plasma erythropoietin (EPO) levels in mice (ELISA); type: in vivo, mouse; conditions: C57BL/6 male mice, i.p., 4 hours after treatment; compound VII 30 and 60 mg/kg, Betulinic acid 60 mg/kg
Procedure: EPO in plasma measured using a mouse EPO ELISA kit in C57BL/6 male mice administered with compound VII (30 mg/kg or 60 mg/kg) or betulinic acid (BA) (60 mg/kg) intraperitoneally. […] Data are expressed as mean±SEM (n=3).
Erythropoietin (EPO) is one of the earliest described and most sensitive HIF target genes; being positively regulated at the transcription level. Here, the ability of compound VII to regulated EPO levels in vivo was examined. Sixteen-week-old C57BL/6 male mice were treated intraperitoneally (i.p.) with Betulinic Acid (60 mg/kg) or compound VII (30 mg/kg or 60 mg/kg). Blood samples were taken under general anaesthesia 4 hours after treatment and the circulating levels of EPO in plasma were quantified using a mouse EPO ELISA kit (R&D Systems) according to manufacturer's instructions. EPO values represent the mean±SEM (n=3).

**Q.** What does the source list for `C=C(C)[C@@H]1CC[C@]2(C(=O)NO)CC[C@]3(C)[C@H](CC[C@@H]4[C@@]5(C)CC[C@H](O)C(C)(C)[C@@H]5CC[C@]43C)[C@@H]12` [Compound VII, (3β) 3-Hydroxy-N-hydroxy-lup-20(29)-en-28-amide]?
**A.** EC50 (Nrf2): > 50 µM; EC50 (TGR5): > 50 µM; HIF-1α expression (HIF-1α): stabilized HIF-1α expression; expression of PHD1 and PHD2 (HIF-1α): without affecting the expression of PDH1 and PDH2; HIF-2α expression (HIF-2α): stabilized HIF-2α expression; expression of PHD3 (HIF-2α): without affecting the expression of PHD3; circulating EPO plasma levels (Erythropoietin (EPO)): strongly increased
